Experimental data from publication PMC6106931 (Alzheimer's Research & Therapy, 2018).

How the values were obtained:
[1] = design: method as in PMID 29067308; conditions: ALZ1002 Study; CV = 19%; cited from earlier work
t-tau/p-tau181p = test: CSF total tau / p-tau181P, Study ALZ1005; type: in vivo, human; conditions: for CSF P-tau percent change from baseline at day 28, Mean (SD) / CSF P-tau percent change from baseline at day 28, Median (range) / CSF total tau percent change from baseline at day 28, Mean (SD) / CSF total tau percent change from baseline at day 28, Median (range): Caucasian early AD
Experimental: In addition, exploratory measurements of plasma/CSF levels of APP fragments (sAPPα, sAPPβ, and total sAPP) and CSF levels of BACE1, t-tau, and p-tau were performed.
Baseline Aβ1–42, p-tau181P, and t-tau concentrations were measured using Innotest® Phospho-TAU181P, Innotest® hTAU Ag, and Innotest® β-AMYLOID1–42 (Innogenetics/Fujirebio, Ghent, Belgium) and the Luminex analytical platform (Luminex Corp., Austin, TX, USA). CSF samples from both the ALZ1005 (Caucasian) and ALZ1008 (Japanese) studies were analyzed in the same laboratory setting using the same assays and analytical platform. Diagnostic threshold CSF concentrations for AD vs. normal controls for Aβ1–42 were applied to the current sample set to judge the likelihood of having cerebral amyloid plaque deposition.
Treatment effect on plasma/CSF Aβ as compared with placebo was estimated by 95% CI for percent changes from baseline in each of the Aβ fragments (Aβ1–37, Aβ1–38, Aβ1–40, and Aβ1–42) in CSF and plasma. For primary and secondary biomarkers, day 28% changes from baseline, the least squares (LS) means (converted to original units), and treatment differences relative to placebo (with corresponding 95% CI) were analyzed on the basis of an analysis of covariance model that included treatment group and baseline score as a covariate. Day 28 changes from baseline in CSF tau/p-tau were summarized using descriptive statistics. Data were summarized and plotted by dose group, and exposure-response relationship was explored. […] Variability of predose baseline parameters vs. day 28 individual CSF ratios of Aβ1–42 to Aβ1–40 across treatment groups was explored graphically. Analyses were performed on individual populations of preclinical AD and MCI due to AD as well as the combined population of early AD.

[2] = Clinical safety, Study ALZ1008; conditions: Japanese preclinical AD
Experimental: Safety and tolerability were assessed during the study by recording adverse events (AEs), clinically significant abnormalities, clinical laboratory tests, ECG, and vital signs and by performing physical, neurological, and MRI examinations. All enrolled participants were included in the safety analysis population.

[3] = Cognitive evaluations (CANTAB Elect, RBANS, CDR-SB, MMSE), Study ALZ1005; type: in vivo, human; conditions: Caucasian early AD
Experimental: When multiple assessments were performed at the same visit by independent raters, the sequential order of testing was RBANS first followed by CDR, MMSE, and CANTAB Elect, and if raters for RBANS and CDR were the same, then CDR was performed prior to RBANS.
The CDR assessed three domains of cognition (memory, orientation, judgment/problem solving) and three domains of function (community affairs, home/hobbies, personal care) using structured interviews of both the patient and a companion/informant by a trained rater and scored using a standard methodology. CDR global score for the six domains range from 0 to 3 with 0 indicating no dementia and 3 indicating severe dementia. It can be summed to obtain CDR Sum of Boxes (CDR-SB) with scores ranging from 0 to 18. CDR and CDR-Japanese version global score has been used in AD trials as a global measure of disease progression.
RBANS battery includes 12 subsets that measure 5 indices; the Digit Span and Coding subtests measure Attention, the Picture Naming and Semantic Fluency subtests measure Language, the Figure Copy and Line Orientation subtests measure Visuospatial/Construction, List Learning and Store Memory subtests measure Immediate Memory, and List Recall, List Recognition, Store Memory and Figure Recall measure Delayed Memory. RBANS has been used in multinational AD clinical trials.
The CANTAB test battery consists of paired associated learning (PAL), reaction time (RTI) and spatial working memory (SWM). Performance in this test battery is associated with pathologic Aβ and tau levels and enables identification of individuals with memory impairment who are likely to develop AD and those with questionable dementia. Scores have a sensitivity of 0.83 and a specificity of 0.82 when differentiating individuals with MCI from healthy older adults. The PAL test assesses visuospatial episodic memory and the outcome measure is the adjusted number of errors committed at the 6-pattern stage. The test-retest reliability for PAL is 0.75 in MCI and 0.85 in AD. The RTI test assesses psychomotor processing speed. […] The test-retest reliability is 0.68 in MCI and 0.72 in AD. The SWM test assesses working memory and executive function. The outcome measure is the number errors made during performing of the task. The test-retest reliability is 0.55 in MCI and 0.68 in AD.
MMSE rates subjects on orientation, registration, attention, calculation, recall and language. The maximum score is 30, and lower the score the greater the impairment.

C[C@@]1(c2cc(NC(=O)c3ccc(C#N)cn3)ccc2F)C=CSC(N)=N1 [atabecestat]
oral clearance (CL/F), model-based estimate [1]: 10.5 L/h
changes in CSF t-tau or p-tau over 4-week treatment (t-tau/p-tau181p; 10-mg and 50-mg doses, Caucasian and Japanese): no relevant changes
CSF P-tau percent change from baseline at day 28, Mean (SD) (t-tau/p-tau181p; 10 mg daily): 3.56 (4.797) %
CSF P-tau percent change from baseline at day 28, Median (range) (t-tau/p-tau181p; 10 mg daily): 3.45 (− 4.6; 11.5) %
CSF total tau percent change from baseline at day 28, Mean (SD) (t-tau/p-tau181p; 10 mg daily): 4.18 (7.629) %
CSF total tau percent change from baseline at day 28, Median (range) (t-tau/p-tau181p; 10 mg daily): 6.76 (− 11.2; 16.1) %
CSF P-tau percent change from baseline at day 28, Mean (SD) (t-tau/p-tau181p; 50 mg daily): 7.36 (3.648) %
CSF P-tau percent change from baseline at day 28, Median (range) (t-tau/p-tau181p; 50 mg daily): 7.42 (1.6; 16.7) %
CSF total tau percent change from baseline at day 28, Mean (SD) (t-tau/p-tau181p; 50 mg daily): 8.02 (6.557) %
CSF total tau percent change from baseline at day 28, Median (range) (t-tau/p-tau181p; 50 mg daily): 7.64 (− 4.5; 23.4) %
incidence of SAE [2]: no reported incidence of SAE
changes in QTcF ([2]; no changes from baseline > 30-ms): no clinically significant changes
CDR-SB Total Score, change from baseline at day 28, Diff. of LS Means (SE) vs placebo ([3]; 10 mg): ^-0.07 (0.305)
CDR-SB Total Score, change from baseline at day 28, LS Mean ([3]; 10 mg): ^-0.04
CDR-SB Total Score, change from baseline at day 28, Mean (SD) ([3]; 10 mg): ^-0.04 (0.660)
MMSE Total Score, change from baseline at day 28, Diff. of LS Means (SE) vs placebo ([3]; 10 mg): ^-1.33 (0.906)
MMSE Total Score, change from baseline at day 28, LS Mean ([3]; 10 mg): ^-0.76
MMSE Total Score, change from baseline at day 28, Mean (SD) ([3]; 10 mg): ^-0.40 (2.971)
PAL Total Errors 6 Shapes Adjusted, change from baseline at day 28, Diff. of LS Means (SE) vs placebo ([3]; 10 mg): ^-1.14 (2.086)
PAL Total Errors 6 Shapes Adjusted, change from baseline at day 28, LS Mean ([3]; 10 mg): ^0.87
RBANS Total Scale, change from baseline at day 28, Diff. of LS Means (SE) vs placebo ([3]; 10 mg): ^-4.39 (2.762)
RBANS Total Scale, change from baseline at day 28, LS Mean ([3]; 10 mg): ^0.07
RBANS Total Scale, change from baseline at day 28, Mean (SD) ([3]; 10 mg): ^0.33 (4.995)
RTI Simple Reaction Time Mean, change from baseline at day 28, Diff. of LS Means (SE) vs placebo ([3]; 10 mg): ^41.89 (23.130)
RTI Simple Reaction Time Mean, change from baseline at day 28, LS Mean ([3]; 10 mg): ^14.30
SWM Between Errors 4-8 Boxes, change from baseline at day 28, Diff. of LS Means (SE) vs placebo ([3]; 10 mg): ^0.06 (2.631)
SWM Between Errors 4-8 Boxes, change from baseline at day 28, LS Mean ([3]; 10 mg): ^1.48
CDR-SB Total Score, change from baseline at day 28, Diff. of LS Means (SE) vs placebo ([3]; 50 mg): ^0.51 (0.300)
CDR-SB Total Score, change from baseline at day 28, LS Mean ([3]; 50 mg): ^0.54
CDR-SB Total Score, change from baseline at day 28, Mean (SD) ([3]; 50 mg): ^0.54 (1.082)
MMSE Total Score, change from baseline at day 28, Diff. of LS Means (SE) vs placebo ([3]; 50 mg): ^-1.29 (0.880)
MMSE Total Score, change from baseline at day 28, LS Mean ([3]; 50 mg): ^-0.73
MMSE Total Score, change from baseline at day 28, Mean (SD) ([3]; 50 mg): ^-0.75 (3.317)
PAL Total Errors 6 Shapes Adjusted, change from baseline at day 28, Diff. of LS Means (SE) vs placebo ([3]; 50 mg): ^-1.44 (2.037)
PAL Total Errors 6 Shapes Adjusted, change from baseline at day 28, LS Mean ([3]; 50 mg): ^0.57
RBANS Total Scale, change from baseline at day 28, Diff. of LS Means (SE) vs placebo ([3]; 50 mg): ^-2.48 (2.705)
RBANS Total Scale, change from baseline at day 28, LS Mean ([3]; 50 mg): ^1.97
RBANS Total Scale, change from baseline at day 28, Mean (SD) ([3]; 50 mg): ^1.88 (10.392)
RTI Simple Reaction Time Mean, change from baseline at day 28, Diff. of LS Means (SE) vs placebo ([3]; 50 mg): ^33.19 (23.367)
RTI Simple Reaction Time Mean, change from baseline at day 28, LS Mean ([3]; 50 mg): ^5.60
SWM Between Errors 4-8 Boxes, change from baseline at day 28, Diff. of LS Means (SE) vs placebo ([3]; 50 mg): ^-0.48 (2.693)
SWM Between Errors 4-8 Boxes, change from baseline at day 28, LS Mean ([3]; 50 mg): ^0.93
RBANS total scale, MMSE total and CDR Sum of Boxes change from baseline at day 28 ([3]; any treatment group): no meaningful change
CANTAB (PAL, RTI, SWM) changes from baseline at day 28 ([3]; atabecestat treatment groups): No meaningful changes
